In patent US10029022B2, “Nuclear medicine diagnostic imaging agent” (Kyoto University, priority 2015, dated 2018):

Tests used:
EGFR (T790M) = molecular target: T1, EGFR (T790M) (Homo sapiens, UniProt P00533, T790M); experiment: EGFR Tyrosine Kinase Inhibiting Activity Measurement 1 (ADP-Glo), T790M; assay type: biochemical; conditions: 1 h incubation with ATP/Poly(Glu, Tyr); >10: <50% enzyme inhibition at 10 μM
T1 construct: purchased Promega V4506
Protocol: (§1) The measurement was carried out according to the Promega protocol applications guide. That is, a buffer solution (40 mM Tris-HCl, pH 7.5, 20 mM MgCl2, 50 μM DTT and 0.1 mg/mL BSA) was used as a dilute solution. The concentration of each compound started at 100 μM (the final concentration, including 1% DMSO) with 5-fold dilutions with the buffer solution. Thus, ten concentrations of each compound were prepared. The initial concentration of PD158780 alone was set at 10 μM (the final concentration, including 1% DMSO) but it was prepared in the same manner as the compound group. Then, 2 μL of each concentration of each compound thus obtained was added to each well of a 384-well plate. Furthermore, 4 μL (20 ng) of an EGFR Kinase Buffer that came with each EGFR Kinase Enzyme System was added to each well, which then was incubated at room temperature for ten minutes. Subsequently, 4 μL of mixed solution of ATP (10 μM) and Poly(Glu, Tyr) (2 μg) substrate was added to each well, which then was incubated at room temperature for one hour. Then, 10 μL of ADP-Glo™ Reagent (ADP-Glo™ Kinase Assay, Promega) was added to each well, which then was reacted at room temperature for 40 minutes. Furthermore, 20 μL of Kinase Detection Reagent (ADP-Glo™ Kinase Assay, Promega) was added to each well, which then was reacted at room temperature for one hour. […] From the data thus obtained, dose-response curves and IC50 were calculated using GraphPad Prism 5 (GraphPad Software, Inc.).

[1] = molecular target: T2, EGFR (EGFR Kinase Enzyme System, WT) (Homo sapiens, UniProt P00533); experiment: EGFR Tyrosine Kinase Inhibiting Activity Measurement 1 (ADP-Glo), WT; assay type: biochemical; conditions: for IC50: 1 h incubation with ATP/Poly(Glu, Tyr), >10: <50% enzyme inhibition at 10 μM
T2 construct: purchased Promega V3831
T2 sequence (P00533 25-1210): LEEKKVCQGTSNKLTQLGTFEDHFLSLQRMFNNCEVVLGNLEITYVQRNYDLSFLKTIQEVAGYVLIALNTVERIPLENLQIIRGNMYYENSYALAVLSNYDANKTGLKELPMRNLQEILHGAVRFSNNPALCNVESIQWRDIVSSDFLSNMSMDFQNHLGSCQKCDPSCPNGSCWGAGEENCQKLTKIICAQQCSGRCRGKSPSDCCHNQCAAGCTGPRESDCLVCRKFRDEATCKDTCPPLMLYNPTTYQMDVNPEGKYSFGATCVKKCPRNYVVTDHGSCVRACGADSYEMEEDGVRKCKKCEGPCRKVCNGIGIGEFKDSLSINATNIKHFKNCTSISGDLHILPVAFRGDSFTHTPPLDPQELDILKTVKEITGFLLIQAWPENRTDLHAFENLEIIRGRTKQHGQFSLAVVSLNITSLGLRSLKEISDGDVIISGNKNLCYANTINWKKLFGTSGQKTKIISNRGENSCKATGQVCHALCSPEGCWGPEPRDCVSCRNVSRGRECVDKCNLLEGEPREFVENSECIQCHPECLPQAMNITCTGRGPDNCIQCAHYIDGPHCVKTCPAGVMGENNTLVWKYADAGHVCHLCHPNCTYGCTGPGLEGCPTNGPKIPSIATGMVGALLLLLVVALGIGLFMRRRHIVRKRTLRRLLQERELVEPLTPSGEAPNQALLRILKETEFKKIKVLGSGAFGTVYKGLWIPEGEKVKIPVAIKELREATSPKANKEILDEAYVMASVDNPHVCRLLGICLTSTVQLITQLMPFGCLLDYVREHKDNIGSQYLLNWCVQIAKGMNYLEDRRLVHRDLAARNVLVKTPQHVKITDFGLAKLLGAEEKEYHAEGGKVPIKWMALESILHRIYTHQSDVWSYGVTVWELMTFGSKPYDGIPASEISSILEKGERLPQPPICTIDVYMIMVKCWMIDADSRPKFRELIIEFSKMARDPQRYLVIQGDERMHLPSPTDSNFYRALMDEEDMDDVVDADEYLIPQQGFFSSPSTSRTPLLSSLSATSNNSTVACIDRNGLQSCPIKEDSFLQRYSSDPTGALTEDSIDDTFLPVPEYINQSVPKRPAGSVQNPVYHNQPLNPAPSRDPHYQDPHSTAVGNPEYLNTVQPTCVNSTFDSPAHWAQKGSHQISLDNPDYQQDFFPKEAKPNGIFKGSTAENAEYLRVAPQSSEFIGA
Protocol: as §1

EGFR (T790M, L858R) = molecular target: T3, EGFR (T790M, L858R) (Homo sapiens, UniProt P00533, L858R/T790M); experiment: EGFR Tyrosine Kinase Inhibiting Activity Measurement 1 (ADP-Glo), DM; assay type: biochemical; conditions: 1 h incubation with ATP/Poly(Glu, Tyr); >10: <50% enzyme inhibition at 10 μM
T3 construct: purchased Promega V5324
T3 sequence (P00533 25-1210 T790M/L858R): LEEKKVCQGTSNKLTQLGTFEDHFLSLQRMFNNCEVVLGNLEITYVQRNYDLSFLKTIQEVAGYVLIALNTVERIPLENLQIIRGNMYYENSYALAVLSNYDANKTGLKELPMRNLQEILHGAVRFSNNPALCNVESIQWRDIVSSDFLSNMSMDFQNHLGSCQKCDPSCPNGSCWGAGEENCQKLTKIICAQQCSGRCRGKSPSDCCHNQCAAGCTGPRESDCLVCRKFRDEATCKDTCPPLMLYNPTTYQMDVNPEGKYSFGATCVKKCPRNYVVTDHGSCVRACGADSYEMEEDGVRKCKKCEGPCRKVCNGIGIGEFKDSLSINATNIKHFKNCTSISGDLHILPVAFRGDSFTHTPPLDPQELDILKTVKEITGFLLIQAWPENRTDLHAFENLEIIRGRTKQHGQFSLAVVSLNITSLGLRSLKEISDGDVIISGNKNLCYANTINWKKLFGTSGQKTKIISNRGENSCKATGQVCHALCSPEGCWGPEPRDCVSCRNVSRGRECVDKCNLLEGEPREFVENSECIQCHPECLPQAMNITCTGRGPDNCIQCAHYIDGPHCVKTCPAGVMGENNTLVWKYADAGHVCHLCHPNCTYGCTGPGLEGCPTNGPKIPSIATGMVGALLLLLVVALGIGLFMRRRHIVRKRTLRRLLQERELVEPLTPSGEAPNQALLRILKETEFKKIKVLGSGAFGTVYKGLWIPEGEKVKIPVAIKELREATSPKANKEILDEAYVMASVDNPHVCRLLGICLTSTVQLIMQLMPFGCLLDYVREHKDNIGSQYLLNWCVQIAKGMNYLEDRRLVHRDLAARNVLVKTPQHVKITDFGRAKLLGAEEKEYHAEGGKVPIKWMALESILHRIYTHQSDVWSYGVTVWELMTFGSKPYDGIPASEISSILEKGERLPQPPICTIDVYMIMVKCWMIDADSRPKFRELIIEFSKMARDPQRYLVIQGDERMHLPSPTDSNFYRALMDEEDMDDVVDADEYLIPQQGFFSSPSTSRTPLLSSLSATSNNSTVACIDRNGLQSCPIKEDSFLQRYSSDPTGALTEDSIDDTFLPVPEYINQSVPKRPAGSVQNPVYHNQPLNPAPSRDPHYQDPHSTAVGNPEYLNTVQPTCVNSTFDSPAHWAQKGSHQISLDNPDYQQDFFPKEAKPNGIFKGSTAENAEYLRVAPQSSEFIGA
Protocol: as §1

EGFR (L858R) = molecular target: T4, EGFR (L858R) (Homo sapiens, UniProt P00533, L858R); experiment: EGFR Tyrosine Kinase Inhibiting Activity Measurement 1 (ADP-Glo), L858R; assay type: biochemical; conditions: 1 h incubation with ATP/Poly(Glu, Tyr); >10: <50% enzyme inhibition at 10 μM
T4 construct: purchased Promega V5322
T4 sequence (P00533 25-1210 L858R): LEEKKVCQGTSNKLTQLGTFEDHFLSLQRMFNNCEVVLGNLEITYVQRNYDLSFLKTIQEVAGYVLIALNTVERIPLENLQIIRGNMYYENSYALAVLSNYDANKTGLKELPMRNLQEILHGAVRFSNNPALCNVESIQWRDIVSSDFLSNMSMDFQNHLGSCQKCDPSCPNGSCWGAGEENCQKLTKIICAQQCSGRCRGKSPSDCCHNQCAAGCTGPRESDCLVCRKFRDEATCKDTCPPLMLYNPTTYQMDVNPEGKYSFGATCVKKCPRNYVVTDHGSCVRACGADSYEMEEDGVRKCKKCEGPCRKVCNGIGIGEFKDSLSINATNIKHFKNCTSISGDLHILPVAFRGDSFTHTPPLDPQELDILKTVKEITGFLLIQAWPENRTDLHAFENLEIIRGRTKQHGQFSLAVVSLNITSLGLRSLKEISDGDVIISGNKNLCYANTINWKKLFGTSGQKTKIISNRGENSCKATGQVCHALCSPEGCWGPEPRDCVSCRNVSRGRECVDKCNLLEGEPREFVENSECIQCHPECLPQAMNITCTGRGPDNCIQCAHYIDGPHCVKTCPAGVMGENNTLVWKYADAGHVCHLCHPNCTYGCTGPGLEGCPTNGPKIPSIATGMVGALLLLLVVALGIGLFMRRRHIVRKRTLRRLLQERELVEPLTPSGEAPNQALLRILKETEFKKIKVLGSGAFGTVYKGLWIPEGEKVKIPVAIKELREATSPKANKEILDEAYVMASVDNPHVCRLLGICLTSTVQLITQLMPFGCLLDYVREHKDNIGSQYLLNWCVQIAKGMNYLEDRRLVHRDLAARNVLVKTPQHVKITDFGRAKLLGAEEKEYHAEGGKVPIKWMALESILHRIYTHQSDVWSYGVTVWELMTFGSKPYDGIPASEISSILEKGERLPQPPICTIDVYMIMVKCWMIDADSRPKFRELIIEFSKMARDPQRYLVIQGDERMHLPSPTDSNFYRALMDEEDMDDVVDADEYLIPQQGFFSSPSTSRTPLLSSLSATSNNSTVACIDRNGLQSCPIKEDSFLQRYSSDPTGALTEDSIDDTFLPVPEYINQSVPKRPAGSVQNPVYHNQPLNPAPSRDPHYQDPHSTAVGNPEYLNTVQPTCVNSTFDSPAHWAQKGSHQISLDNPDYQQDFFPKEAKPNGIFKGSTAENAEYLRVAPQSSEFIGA
Protocol: as §1

L858R-mutated EGFR = molecular target: T5, L858R-mutated EGFR (Homo sapiens, UniProt P00533, L858R); experiment: EGFR Tyrosine Kinase Inhibiting Activity Measurement 2, L858R; assay type: biochemical
T5 construct: purchased Promega V5322
Protocol: as §1, with “minutes.” for “minutes. Furthermore, 20 μL of Kinase Detection Reagent (ADP-Glo™ Kinase Assay, Promega) was added to each well, which then was reacted at room temperature for one hour.”

L858R/T790M-mutated EGFR = molecular target: T6, L858R/T790M-mutated EGFR (Homo sapiens, UniProt P00533, L858R/T790M); experiment: EGFR Tyrosine Kinase Inhibiting Activity Measurement 2, L858R/T790M; assay type: biochemical
T6 construct: purchased Promega V5324
Protocol: as §1, with “minutes.” for “minutes. Furthermore, 20 μL of Kinase Detection Reagent (ADP-Glo™ Kinase Assay, Promega) was added to each well, which then was reacted at room temperature for one hour.”

[2] = tested on: H1975 tumor (L858R/T790M mutation); experiment: Biodistribution Experiment (Blocking Experiment), H1975; assay type: in vivo, mouse; conditions: with or without AZD9291 (17 μg), 180 min after administration; FIG. 4
Protocol: At 180 minutes after the administration, they were slaughtered and H3255 tumor tissues were removed. The mass and the accumulated radioactivity were measured, and the amount of accumulation (% dose/g) was calculated from the radioactivity per unit weight. This was carried out in the same manner as above except that AZD9291 was not administered.
Furthermore, this experiment was carried out in the same manner as above except that H1975 tumor-bearing mice were used.

[3] = tested on: H3255 tumor-bearing mouse; experiment: PET/CT Imaging 1; assay type: in vivo; conditions: 180 to 200 min after tail vein administration; FIG. 5
Protocol: [^18F]H4 (9.8 MBq/150 μL) was administered to a H3255 tumor-bearing mouse through a tail vein. He was anesthetized by inhalation of isoflurane (2.0%) from 175 minutes after the administration and then was imaged for 20 minutes from 180 minutes after the administration using a PET/CT device (FX-3300). Thereafter, CT imaging (60 kV, 320 μA) was carried out. The image reconstruction was carried out using 3D-OSEM.
Animal: Balb/c nu/nu mouse, 10 w, male, 22.2 g
Injection dose: 264 μCi/150 μL
(§2) Image acquisition: 180 to 200 min after administration
(§3) Condition of CT: 60 kV, 320 μA

[4] = tested on: H3255 tumor-bearing mouse; experiment: Biodistribution Experiment in tumor-bearing mice; assay type: in vivo
Protocol: 1×10^7 cells/mouse of H3255 cells suspended in BD Matrigel™ Basement Membrane Matrix was implanted to the right shoulder of a 5-week-old male BALB/c nu/nu mouse (Shimizu Laboratory Supplies), and thereby a tumor-bearing mouse was prepared. They were used for experiments, with the tumor being 1 cm or smaller in diameter.
[^18F]H4 was dissolved in saline containing 0.1% Tween 80 so as to be 6 μCi/100 μL and 100 μL thereof was administered to each tumor-bearing mouse through a tail vein. The mice were decapitated/slaughtered at predetermined time points (30 minutes, 1 hour, 2 hours, and 3 hours after administration). The blood was collected and tissues were removed and then the mass and the accumulated radioactivity were measured. The amount of accumulation (% dose/g) was calculated from the radioactivity per unit weight and the accumulation in the tissues was evaluated. FIG. 3 is a graph showing an example of variations with time of the accumulation of [^18F]H4 in each organ.

[5] = tested on: H1975 tumor-bearing mouse; experiment: PET/CT Imaging 2; assay type: in vivo; conditions: 180 to 200 min after administration; FIG. 6
Protocol: PET/CT Imaging 2 was carried out in the same manner as in PET/CT Imaging 1 except that a H1975 tumor-bearing mouse was used and the following imaging conditions were employed.
Animal: Balb/c nu/nu mouse, 9 w, male, 20.9 g
Injection dose: 486 μCi/150 μL
as §2, §3

[6] = tested on: H1975 cells (L858R/T790M mutation); experiment: Cellular Uptake Inhibition Experiment 1 (gefitinib), H1975; assay type: cell-based, human; conditions: regardless of gefitinib (0, 0.5, 1, 2.5 μM), 2 h incubation; FIG. 1
Protocol: (§4) Two types of EGFR mutation-positive human non-small cell lung cancer cells H3255 (L858R mutation) and H1975 (L858R/T790M mutation) were cultured in a DMEM/Ham's F-12 medium (Nacalai Tesque) containing glutamine, antibiotics (penicillin-streptomycin), and 20% fetal bovine serum.
(§5) The binding specificity of H4 to each mutated EGFR-TK was evaluated by a cellular uptake inhibition experiment using H3255 cells, which are L858R mutant cells, and H1975 cells, which are L858R/T790M mutant cells. H3255 and H1975 cells (4×10^5 cells/well) were cultured in a 12-well plate for 48 hours. After the medium was removed, each well was washed with PBS(−) once. Each fetal bovine serum-free DMEM/Ham's F-12 medium with [^18F]H4 (0.15 MBq/mL) and gefitinib (0, 0.5, 1, and 2.5 μM) added thereto was added to each well, which then was incubated in a CO2 incubator for two hours. Each well was washed with 0.1% Tween 80/1% DMSO/PBS(−) three times, and the cells were dissolved with 0.2 N NaOH. The radioactivity of each solution was measured with the gamma counter, and the protein concentration was determined using a BCA Protein Assay Kit (Pierce, Rockford, Ill.) and then the measurement results were analyzed.

[7] = tested on: H3255 tumor (L858R mutation); experiment: Biodistribution Experiment (Blocking Experiment), H3255; assay type: in vivo, mouse; conditions: AZD9291 (17 μg) administered simultaneously, 180 min after administration; FIG. 4
Protocol: At 180 minutes after the administration, they were slaughtered and H3255 tumor tissues were removed. The mass and the accumulated radioactivity were measured, and the amount of accumulation (% dose/g) was calculated from the radioactivity per unit weight. […]

[8] = tested on: H3255 cells (L858R mutation); experiment: Cellular Uptake Inhibition Experiment 1 (gefitinib), H3255; assay type: cell-based, human; conditions: gefitinib 0, 0.5, 1, 2.5 μM, 2 h incubation; FIG. 1
Protocol: as §4, §5

[9] = tested on: H1975 cells (L858R/T790M mutation); experiment: Cellular Uptake Inhibition Experiment 2 (AZD9291), H1975; assay type: cell-based, human; conditions: regardless of AZD9291 (0, 1, 5 μM), 2 h incubation; FIG. 2
Protocol: as §4
(§6) H3255 and H1975 cells (4×10^5 cells/well) were cultured in a 12-well plate for 24 hours. After the medium was removed, each well was washed with PBS(−) once. […] [^18F]H4 (148 kBq/well) was added to each well, which then was incubated in the 5% CO2 incubator at 37° C. for two hours. Each well was washed with 0.1% Tween 80/1% DMSO/PBS(−) three times, and the cells were dissolved with 0.2 N NaOH. The radioactivity of each solution was measured with the gamma counter and the protein concentration was determined using the BCA Protein Assay Kit (Pierce, Rockford, Ill.) and then the measurement results were analyzed.

[10] = tested on: H3255 cells (L858R mutation); experiment: Cellular Uptake Inhibition Experiment 2 (AZD9291), H3255; assay type: cell-based, human; conditions: AZD9291 0, 1, 5 μM pre-incubated 30 min, then 2 h; FIG. 2
Protocol: as §4, §6

[11] = 30 min after tail vein administration, average of 5 mice
[12] = 60 min after tail vein administration, average of 5 mice
[13] = 120 min after tail vein administration, average of 5 mice
[14] = 180 min after tail vein administration, average of 5 mice
[15] = from 30 min to 180 min after administration

T1 sequence (P00533 25-1210 T790M): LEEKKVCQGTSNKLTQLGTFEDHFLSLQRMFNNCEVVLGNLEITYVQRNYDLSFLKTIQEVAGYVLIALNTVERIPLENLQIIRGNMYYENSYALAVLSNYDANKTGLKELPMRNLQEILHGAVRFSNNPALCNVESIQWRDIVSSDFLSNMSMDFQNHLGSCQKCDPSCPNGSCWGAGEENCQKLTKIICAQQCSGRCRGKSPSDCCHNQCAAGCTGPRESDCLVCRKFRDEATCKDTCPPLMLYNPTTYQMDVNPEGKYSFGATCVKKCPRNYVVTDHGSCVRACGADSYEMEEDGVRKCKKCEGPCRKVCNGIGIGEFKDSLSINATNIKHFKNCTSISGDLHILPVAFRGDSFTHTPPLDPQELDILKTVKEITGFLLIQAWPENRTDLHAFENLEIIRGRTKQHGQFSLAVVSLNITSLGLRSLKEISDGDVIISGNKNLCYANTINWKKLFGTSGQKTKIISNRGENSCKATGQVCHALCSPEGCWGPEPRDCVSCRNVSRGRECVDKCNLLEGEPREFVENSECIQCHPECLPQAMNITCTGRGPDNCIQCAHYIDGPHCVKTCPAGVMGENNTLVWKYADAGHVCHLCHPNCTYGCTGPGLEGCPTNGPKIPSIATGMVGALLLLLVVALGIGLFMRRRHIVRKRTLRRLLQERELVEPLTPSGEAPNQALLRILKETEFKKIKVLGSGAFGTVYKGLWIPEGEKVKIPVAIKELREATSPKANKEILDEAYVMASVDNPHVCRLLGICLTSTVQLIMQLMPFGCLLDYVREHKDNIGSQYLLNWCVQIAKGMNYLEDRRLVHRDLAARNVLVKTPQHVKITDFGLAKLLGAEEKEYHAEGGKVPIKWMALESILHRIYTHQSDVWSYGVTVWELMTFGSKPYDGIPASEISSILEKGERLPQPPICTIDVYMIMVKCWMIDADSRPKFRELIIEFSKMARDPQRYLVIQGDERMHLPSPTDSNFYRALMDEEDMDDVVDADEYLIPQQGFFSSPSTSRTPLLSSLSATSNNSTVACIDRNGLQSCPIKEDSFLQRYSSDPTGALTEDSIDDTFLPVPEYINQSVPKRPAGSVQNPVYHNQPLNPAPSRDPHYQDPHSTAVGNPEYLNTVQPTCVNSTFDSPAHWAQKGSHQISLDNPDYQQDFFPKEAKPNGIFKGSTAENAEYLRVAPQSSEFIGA

FCCOc1cccc(Nc2ncnc3cnc(NCCN4CCOCC4)cc23)c1 [Compound H2, N^4-(3-(2-Fluoroethoxy)phenyl)-N^6-(2-morpholinoethyl)pyrido[3,4-d]pyrimidine-4,6-diamine]
IC50 (EGFR (T790M)): > 10000 nM | IC50 [1]: 7210 nM | binding affinity to the wild-type EGFR (in words) ([1]; comment on Table 1): low binding affinity | IC50 (EGFR (T790M, L858R)): > 10000 nM | IC50 (EGFR (L858R)): 653 nM

O=C(/C=C/CN1CCN(CCF)CC1)Nc1cc2c(Nc3cccc(Br)c3)ncnc2cn1 [Compound H4, (E)-N-(4-((3-Bromophenyl)amino)pyrido[3,4-d]pyrimidin-6-yl)-4-(4-(2-fluoroethyl)piperazin-1-yl)but-2-enamide]
IC50 (EGFR (T790M)): 409 nM | IC50 [1]: 49 nM | IC50 (EGFR (T790M, L858R)): 406 nM | IC50 (L858R-mutated EGFR; 2 h incubation after ATP and Poly(Glu, Tyr) substrate were added, read-out: EGFR Kinase Inhibition: IC50, L858R): 15.6 ± 0.8 nM | binding affinity to the L858R-mutated EGFR (in words) (L858R-mutated EGFR; comment on Table 2): relatively high binding affinity | IC50 (EGFR (L858R)): 58 nM | IC50 (L858R/T790M-mutated EGFR; 2 h incubation after ATP and Poly(Glu, Tyr) substrate were added, read-out: EGFR Kinase Inhibition: IC50, L858R/T790M): 326 ± 64 nM | binding affinity to the L858R/T790M-mutated EGFR (in words) (L858R/T790M-mutated EGFR; comment on Table 2): lower than AZD9291 and was higher than Erlotinib

O=C(/C=C/CN1CCN(CC[18F])CC1)Nc1cc2c(Nc3cccc(Br)c3)ncnc2cn1 [[^18F]H4, (E)-N-(4-((3-Bromophenyl)amino)pyrido[3,4-d]pyrimidin-6-yl)-4-(4-(2-[^18F]fluoroethyl)piperazin-1-yl)but-2-enamide]
change of accumulation of [^18F]H4 in the H1975 tumor [2]: hardly changed | accumulation in PET/CT image, H3255 implant [3]: accumulated specifically in the portion where H3255 was implanted | Tumor/Blood Ratio [4, 11]: 1.99 | Tumor/Muscle Ratio [4, 11]: 3.47 | Tumor/Blood Ratio [4, 12]: 3.24 | Tumor/Muscle Ratio [4, 12]: 8.89 | Tumor/Blood Ratio [4, 13]: 3.28 | Tumor/Muscle Ratio [4, 13]: 5.75 | Tumor/Blood Ratio [4, 14]: 3.03 | Tumor/Muscle Ratio [4, 14]: 9.29 | Tumor/Blood Ratio [4, 15]: around 3 | Tumor/Muscle Ratio [4, 15]: exceeded 5 | metabolism and excretion (transition from the liver to the intestine) ([4]; tumor-bearing mice, 30 to 180 min after administration, FIG. 3): quickly metabolized and excreted | accumulation in PET/CT image, H1975 implant [5]: no specific accumulation | uptake of [^18F]H4 into the H1975 cells [6]: approximately 50 % ID/mg protein | reduction in accumulation of [^18F]H4 in the H3255 tumor [7]: 54% | uptake of [^18F]H4 into the H3255 cells [8]: inhibited by gefitinib | uptake of [^18F]H4 into the H1975 cells [9]: approximately 50 % ID/mg protein | uptake of [^18F]H4 into the H3255 cells [10]: inhibited by AZD9291

FCCNc1cc2c(Nc3cccc(Br)c3)ncnc2cn1 [Compound H1, 4-[(3-Bromophenyl)amino]-6-(2-fluoroethylamino)pyrido[3,4-d]pyrimidine]
IC50 (EGFR (T790M)): 4110 nM | IC50 [1]: 17 nM | IC50 (EGFR (T790M, L858R)): 4020 nM | IC50 (EGFR (L858R)): 15 nM

Fc1ccc(Nc2ncnc3cnc(NCCN4CCOCC4)cc23)cn1 [Compound H3, N^4-(6-Fluoropyridin-3-yl)-N^6-(2-morpholinoethyl)pyrido[3,4-d]pyrimidin-4,6-diamine]
IC50 (EGFR (T790M)): > 10000 nM | IC50 [1]: 3750 nM | IC50 (EGFR (T790M, L858R)): > 10000 nM | IC50 (EGFR (L858R)): 686 nM

CNc1cc2c(Nc3cccc(Br)c3)ncnc2cn1 [PD158780, reference compound]
IC50 [1]: 6 nM
